Columns and labels:
cyclooxygenase-2 (COX-2) = target: T1, cyclooxygenase-2 (COX-2) (Homo sapiens, UniProt P35354); experiment: Inhibition of cyclooxygenase-2 (COX-2) activity in human blood (prostaglandin E2 levels after LPS, aspirin added); format: cell-based; conditions: for inhibition at 10 µM: read-out: % inhibition COX-2 (10 μM), 10 μM test compound; for inhibition at 1 µM: read-out: % inhibition COX-2 (1 μM), 1 μM test compound
T1 construct: 5 μL of LPS is also added (in order to induce COX-2 activy); from tissue; host or cells: heparinized human whole blood, LPS-stimulated, with aspirin added
T1 sequence (P35354 18-604): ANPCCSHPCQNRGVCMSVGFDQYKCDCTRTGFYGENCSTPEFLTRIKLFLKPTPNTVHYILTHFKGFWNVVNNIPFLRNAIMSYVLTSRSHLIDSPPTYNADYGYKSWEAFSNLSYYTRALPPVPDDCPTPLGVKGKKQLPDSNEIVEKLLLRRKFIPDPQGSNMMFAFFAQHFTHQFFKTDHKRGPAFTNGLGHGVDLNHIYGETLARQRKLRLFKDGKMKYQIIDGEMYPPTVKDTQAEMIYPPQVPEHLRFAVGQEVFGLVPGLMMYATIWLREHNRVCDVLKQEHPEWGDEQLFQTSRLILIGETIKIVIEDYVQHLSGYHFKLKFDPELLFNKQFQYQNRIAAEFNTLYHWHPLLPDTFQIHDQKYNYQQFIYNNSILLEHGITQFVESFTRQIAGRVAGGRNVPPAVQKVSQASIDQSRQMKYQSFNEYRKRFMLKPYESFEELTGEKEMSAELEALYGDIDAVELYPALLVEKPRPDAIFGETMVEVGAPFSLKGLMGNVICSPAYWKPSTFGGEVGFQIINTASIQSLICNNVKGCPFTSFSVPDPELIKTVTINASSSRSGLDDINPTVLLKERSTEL
Procedure: (§1) Inhibition of cyclooxgenase-1 (COX-1) and cyclooxygenase-2 (COX-2) Activity in Human Blood
Blood is divided into two groups; one will be used to determine COX-1 activity and the other one for COX-2. The procedure to follow will be different in each case.
For COX-2, 3-mL tubes are prepared in duplicate containing 5 μL of the test compound (solution in DMSO) and 5 μL of vehicle in the case of blanks and controls. To each tube, 5 μL of a 2 mg/mL solution of aspirin in DMSO is also added (in order to inhibit COX-1 activity), and to all tubes except the blanks 5 μL of LPS is also added (in order to induce COX-2 activy). Finally, 1 mL of heparinized blood is added to each tube, and tubes are then stirred and placed in a thermostatized bath at 37° C. for 24 h. Then, tubes are centrifuged at 2000 g for 10 min at 4° C., the resulting plasma is collected and is frozen at −70° C. until use. COX-2 activity is determined by measuring prostaglandin E2 levels in the samples. The plasma stored at −70° C. is defrozen and prostaglandin E2 levels in these samples are determined using a kit (Kit Prostaglandin E2, Biotrak EIA system RPN222 Amershan), according to the manufacturer's instructions.

cyclooxygenase-1 (COX-1) = target: T2, cyclooxygenase-1 (COX-1) (Homo sapiens, UniProt P23219); experiment: Inhibition of cyclooxygenase-1 (COX-1) activity in human blood (thromboxane B2 levels after ionophore A23187); format: cell-based; conditions: for inhibition at 10 µM: read-out: % inhibition COX-1 (10 μM), 10 μM test compound
T2 construct: from tissue; host or cells: heparinized human whole blood
Procedure: as §1
Heparinized human blood from healthy volunteers who had not taken non-steroidal anti-inflammatory drugs (NSAIDs) for a week, and neither alcohol nor xanthines 24 h before blood collection, is used. Blood is divided into two groups; one will be used to determine COX-1 activity and the other one for COX-2. The procedure to follow will be different in each case.
For COX-1, 12-mL tubes are used. 5 μL of the test compound (in DMSO solution; in duplicate) are placed in each tube. Aditionally two tubes for blanks and two tubes for controls containing 5 μL of DMSO are used. Next, 1 mL of blood is added to each tube and they are stirred. The tubes are placed in a thermostatized bath at 37° C. for 5 h. Then, 5 μL of 5 mM ionophore A23187 is added to each tube, except to the blanks, and tubes are incubated for 30 min more at 37° C. After this time, the tubes are placed in ice and 100 μL of a 100 mM EGTA solution is added to stop the reaction. 2.5 mL of methanol is added to each tube to reach a final concentration of 70%. The tubes are stirred and frozen at −70° C. till their use. The COX-1 activity is determined by measuring thromboxane B2 levels in the samples. Blood is defrozen and centrifuged at 2000 g for 10 min at 4° C. 1 mL of supematant is evaporated under nitrogen to dryness. The solid residue thus obtained is resuspended in 1 mL of saline and the thromboxane B2 levels in these samples are determined using a kit (Kit Thromboxane B2, Biotrak EIA system RPN220 Amershan), according to the manufacturer's instructions.

T2 sequence (P23219 24-599): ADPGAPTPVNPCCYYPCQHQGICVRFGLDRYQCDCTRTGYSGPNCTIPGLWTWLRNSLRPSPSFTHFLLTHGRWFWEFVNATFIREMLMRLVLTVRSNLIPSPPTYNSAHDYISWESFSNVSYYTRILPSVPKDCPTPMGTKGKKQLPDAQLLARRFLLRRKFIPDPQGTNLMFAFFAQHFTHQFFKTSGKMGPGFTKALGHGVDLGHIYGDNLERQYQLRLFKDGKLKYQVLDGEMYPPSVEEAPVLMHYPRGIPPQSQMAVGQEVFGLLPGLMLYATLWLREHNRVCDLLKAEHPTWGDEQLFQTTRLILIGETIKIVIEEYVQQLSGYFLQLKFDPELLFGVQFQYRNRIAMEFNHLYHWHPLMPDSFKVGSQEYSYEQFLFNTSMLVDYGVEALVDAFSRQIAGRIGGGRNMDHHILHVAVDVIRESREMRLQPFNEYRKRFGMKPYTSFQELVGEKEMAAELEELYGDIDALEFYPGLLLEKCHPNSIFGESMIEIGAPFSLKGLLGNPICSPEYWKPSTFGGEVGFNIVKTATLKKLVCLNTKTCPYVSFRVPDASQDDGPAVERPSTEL

| inhibition at 10 µM (cyclooxygenase-2 (COX-2)) | inhibition at 10 µM (cyclooxygenase-1 (COX-1)) | inhibition at 1 µM (cyclooxygenase-2 (COX-2)) | melting point | Structure (SMILES) | % inhibition COX-2 (1 μM) (cyclooxygenase-2 (COX-2); 1 μM test compound) | % inhibition COX-2 (10 μM) (cyclooxygenase-2 (COX-2); 10 μM test compound) | % inhibition COX-1 (10 μM) (cyclooxygenase-1 (COX-1); 10 μM test compound) |
| --- | --- | --- | --- | --- | --- | --- | --- |
| 100% | 60.1% | 85.6% | – | CS(=O)(=O)c1ccc(-c2cnc(Cl)n2-c2ccc(F)cc2)cc1 [Example 7, 2Chloro-1-(4-fluorophenyl)-5-(4-methylsulfonylphenyl)imidazole] | – | – | – |
| 100% | 52.7% | 74% | – | CS(=O)(=O)c1ccc(-c2cnc(C#N)n2-c2ccc(F)cc2)cc1 [Example 10, 1-(4-Fluorophenyl)-5-(4-methylsulfonylphenyl)imidazol-2-carbonitrile] | – | – | – |
| 100% | 70.6% | 83.6% | 156 to 160 °C | Cc1ccc(-n2c(-c3ccc(S(C)(=O)=O)cc3)cnc2Cl)cc1 [Example 12, 2-Chloro-1-(4-methylphenyl)-5-(4-methylsulfonylphenyl)imidazole] | – | – | – |

Second part, the compound before the results:

| Structure (SMILES) | inhibition at 10 µM (cyclooxygenase-2 (COX-2)) | inhibition at 10 µM (cyclooxygenase-1 (COX-1)) | inhibition at 1 µM (cyclooxygenase-2 (COX-2)) | melting point | % inhibition COX-2 (1 μM) (cyclooxygenase-2 (COX-2); 1 μM test compound) | % inhibition COX-2 (10 μM) (cyclooxygenase-2 (COX-2); 10 μM test compound) | % inhibition COX-1 (10 μM) (cyclooxygenase-1 (COX-1); 10 μM test compound) |
| --- | --- | --- | --- | --- | --- | --- | --- |
| Cc1ccc(-c2c(Cl)ncn2-c2ccc(S(N)(=O)=O)cc2)cc1 [13(3), 4-[4-Chloro-5-(4-methylphonyl)imidazol-1-yl]benzenesulfonamide] | – | – | – | – | 76.1% | 100% | 71.3% |
| Cc1ncn(-c2ccc(S(C)(=O)=O)cc2)c1-c1ccc(F)cc1 [Example 3, 5-(4-Fluorophenyl)-4-methyl-1-(4-methylsulfonylphenyl)imidazole] | 86.5% | 8.3% | – | – | – | – | – |
| CS(=O)(=O)c1ccc(-n2cnc(Cl)c2-c2ccc(F)cc2)cc1 [Example 4, 4-Chloro-5-(4-fluorophenyl)-1-(4-methylsulfonylphenyl)imidazole] | 100% | 37.8% | 89% | – | – | – | – |
| CS(=O)(=O)c1ccc(-n2cnc(Br)c2-c2ccc(F)cc2)cc1 [Example 5, 4-Bromo-5-(4-fluorophenyl)-1-(4-methylsulfonylphenyl)imidazole] | 100% | 33.8% | 85.2% | – | – | – | – |

From US6838476B1, “Imidazoles with anti-inflammatory activity” (J. Uriach & Cia, SA, priority 1998, dated 2005)
